Laboratory results reported in PMC6691843, “Seeking new approach for therapeutic treatment of cholera disease via inhibition of bacterial carbonic anhydrases: experimental and theoretical studies for sixteen benzenesulfonamide derivatives” (Journal of Enzyme Inhibition and Medicinal Chemistry, 2019).
Read-outs that look alike come from different tables or passages of the source.

Legend:
VchCAβ = VchCAβ (Vibrio cholerae, UniProt A0A086SLX8); assay: stopped flow CO2 hydrase assay, VchCAβ; assay type: biochemical; details: for inhibitory activity toward VchCAβ (in words): qualitative statement
Sequence of VchCAβ (A0A086SLX8 entry or part of it): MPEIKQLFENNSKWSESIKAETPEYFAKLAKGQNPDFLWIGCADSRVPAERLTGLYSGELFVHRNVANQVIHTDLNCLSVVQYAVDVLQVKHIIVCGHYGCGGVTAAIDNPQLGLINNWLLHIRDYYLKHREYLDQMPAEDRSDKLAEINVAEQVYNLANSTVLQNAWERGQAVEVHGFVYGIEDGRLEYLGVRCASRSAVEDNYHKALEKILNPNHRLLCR

VchCAγ = VchCAγ (Vibrio cholerae, UniProt Q9KVT1); assay: stopped flow CO2 hydrase assay, VchCAγ; assay type: biochemical
Sequence of VchCAγ (Q9KVT1 entry or part of it): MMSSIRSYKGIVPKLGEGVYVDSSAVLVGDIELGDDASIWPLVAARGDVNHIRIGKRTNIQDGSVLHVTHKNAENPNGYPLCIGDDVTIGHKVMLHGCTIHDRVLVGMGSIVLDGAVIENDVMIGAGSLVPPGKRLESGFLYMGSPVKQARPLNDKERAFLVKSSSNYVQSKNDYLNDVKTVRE

VchCAα = target: T1, VchCAα (Vibrio cholerae serotype O1, UniProt Q9KMP6); assay: stopped flow CO2 hydrase assay, VchCAα; assay type: biochemical; details: for Ki: stopped flow CO2 hydrase assay, mean from three different assays
T1 construct: made in house; host or cells: E. coli BL21 DE3
T1 sequence (Q9KMP6 21-239): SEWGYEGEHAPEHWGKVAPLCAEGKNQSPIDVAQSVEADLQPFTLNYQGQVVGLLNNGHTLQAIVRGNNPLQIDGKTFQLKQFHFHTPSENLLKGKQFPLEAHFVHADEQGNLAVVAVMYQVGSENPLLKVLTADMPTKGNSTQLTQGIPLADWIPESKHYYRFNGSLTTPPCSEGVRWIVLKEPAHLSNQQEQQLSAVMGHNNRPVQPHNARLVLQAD

pathogen = system: pathogen; set-up: method as in PMID 26010545; details: cited from earlier work

NS(=O)(=O)c1ccc(C(=O)N2CCCCC2)cc1 [5a, 4-(Piperidine-1-carbonyl)benzenesulfonamide]
Ki (VchCAβ): > 10 µM | Ki (VchCAγ): > 10 µM | Ki (VchCAα; Ki VchCAα): 0.843 µM

CC1CCCCN1C(=O)c1ccc(S(N)(=O)=O)cc1 (stereo not shown) [5b, 4-(2-Methylpiperidine-1-carbonyl)benzenesulfonamide]
Ki (VchCAβ): > 10 µM | Ki (VchCAγ): > 10 µM | Ki (VchCAα; Ki VchCAα): 0.296 µM

CC1CCCN(C(=O)c2ccc(S(N)(=O)=O)cc2)C1 (stereo not shown) [5c, 4-(3-Methylpiperidine-1-carbonyl)benzenesulfonamide]
Ki (VchCAβ): > 10 µM | Ki (VchCAγ): > 10 µM | Ki (VchCAα; Ki VchCAα): 0.529 µM

CC1CCN(C(=O)c2ccc(S(N)(=O)=O)cc2)CC1 [5d, 4-(4-Methylpiperidine-1-carbonyl)benzenesulfonamide]
Ki (VchCAβ): > 10 µM | melting point: 212 to 213 °C | Ki (VchCAγ): > 10 µM | Ki (VchCAα; Ki VchCAα): 0.589 µM

NS(=O)(=O)c1ccc(C(=O)N2CCC(Cc3ccccc3)CC2)cc1 [5e, 4-(4-Benzylpiperidine-1-carbonyl)benzenesulfonamide]
Ki (VchCAβ): 3.75 µM | melting point: 156 to 157 °C | Ki (VchCAγ): > 10 µM | Ki (VchCAα; Ki VchCAα): 0.242 µM

NS(=O)(=O)c1ccc(C(=O)N2CCCCCC2)cc1 [6a, 4-(Azepane-1-carbonyl)benzenesulfonamide]
Ki (VchCAβ): > 10 µM | Ki (VchCAγ): > 10 µM | Ki (VchCAα; Ki VchCAα): 0.275 µM

NS(=O)(=O)c1ccc(C(=O)N2CCC(c3ccccc3)CC2)cc1 [7a, 4-(4-Phenylpiperidine-1-carbonyl)benzenesulfonamide]
Ki (VchCAβ): 3.31 µM | melting point: 222 to 223 °C | Ki (VchCAγ): > 10 µM | Ki (VchCAα; Ki VchCAα): 0.0433 µM

NS(=O)(=O)c1ccc(C(=O)N2CCC(O)(c3ccccc3)CC2)cc1 [7b, 4-(4-Hydroxy-4-phenylpiperidine-1-carbonyl)benzenesulfonamide]
Ki (VchCAβ): 3.71 µM | melting point: 135 to 137 °C | Ki (VchCAγ): > 10 µM | Ki (VchCAα; Ki VchCAα): 0.194 µM

NS(=O)(=O)c1ccc(C(=O)N2CCC(O)(c3ccc(Cl)cc3)CC2)cc1 [7c, 4-[4-(4-Chlorophenyl)-4-hydroxypiperidine-1-carbonyl]benzenesulfonamide]
Ki (VchCAβ): 3.94 µM | melting point: 215 to 217 °C | Ki (VchCAγ): > 10 µM | Ki (VchCAα; Ki VchCAα): 0.0451 µM

NS(=O)(=O)c1ccc(C(=O)N2CCC(O)(c3ccc(Br)cc3)CC2)cc1 [7d, 4-[4-(4-Bromophenyl)-4-hydroxy-piperidine-1-carbonyl]benzenesulfonamide]
Ki (VchCAβ): 2.78 µM | melting point: 219 to 220 °C | Ki (VchCAγ): > 10 µM | Ki (VchCAα; Ki VchCAα): 0.0588 µM

N#CC1(c2ccccc2)CCN(C(=O)c2ccc(S(N)(=O)=O)cc2)CC1 [7e, 4-(4-Cyano-4-phenylpiperidine-1-carbonyl)benzenesulfonamide]
Ki (VchCAβ): 0.806 µM | melting point: 285 to 286 °C | Ki (VchCAγ): > 10 µM | Ki (VchCAα; Ki VchCAα): 0.0899 µM

CC(=O)C1(c2ccccc2)CCN(C(=O)c2ccc(S(N)(=O)=O)cc2)CC1 [7f, 4-(4-Acetyl-4-phenyl-piperidine-1-carbonyl)benzenesulfonamide]
Ki (VchCAβ): 6.61 µM | Ki (VchCAγ): > 10 µM | Ki (VchCAα; read-out: Ki VchCAα): 0.0721 µM

NS(=O)(=O)c1ccc(C(=O)N2CCN(Cc3ccccc3)CC2)cc1 [8a, 4-(4-Benzylpiperazine-1-carbonyl)benzenesulfonamide]
Ki (VchCAβ): > 10 µM | inhibitory activity toward VchCAβ (in words) (VchCAβ): completely loss of inhibitory activity | melting point: 204 to 205 °C | Ki (VchCAγ): > 10 µM | reduction of activity on VchCAα compared to parent compound 8d (VchCAα; 8a versus 8d): ten-fold reduction of activity | Ki (VchCAα; Ki VchCAα): 0.47 µM

NS(=O)(=O)c1ccc(C(=O)N2CCN(Cc3ccc(F)cc3)CC2)cc1 [8b, 4-[4-[(4-Fluorophenyl)methyl]piperazine-1-carbonyl]benzenesulfonamide]
Ki (VchCAβ): 5.01 µM | inhibitory activity toward VchCAβ (in words) (VchCAβ): moderate inhibitors | melting point: 206 to 207 °C | Ki (VchCAγ): > 10 µM | Ki (VchCAα; Ki VchCAα): 0.0957 µM

NS(=O)(=O)c1ccc(C(=O)N2CCN(C(c3ccccc3)c3ccccc3)CC2)cc1 [8c, 4-(4-Benzhydrylpiperazine-1-carbonyl)benzenesulfonamide]
Ki (VchCAβ): 4.82 µM | inhibitory activity toward VchCAβ (in words) (VchCAβ): moderate inhibitors | Ki (VchCAγ): > 10 µM | Ki (VchCAα; Ki VchCAα): 0.275 µM

NS(=O)(=O)c1ccc(C(=O)N2CCN(c3ccccc3)CC2)cc1 [8d, 4-(4-Phenylpiperazine-1-carbonyl)benzenesulfonamide]
Ki (VchCAβ): 4.16 µM | inhibitory activity toward VchCAβ (in words) (VchCAβ): moderate inhibitors | Ki (VchCAγ): > 10 µM | Ki (VchCAα; Ki VchCAα): 0.047 µM

CCOc1ccc2nc(S(N)(=O)=O)sc2c1 [EZA, ethoxzolamide]
growth of pathogen (pathogen): reduce the growth of pathogen | virulence gene expression (pathogen): decrease the virulence gene expression
